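Tested at 5 concentrations; 48 h exposure; 96-well plates; endpoints linearly interpolated, else capped at highest concentration. The concentration for full growth arrest is given as TGI.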
What was measured:
Test in all cases: growth of human tumour cells (NCI), 48 h
[1] = tested on: IGROV1 ovarian
[2] = tested on: A549 NSCLC
[3] = tested on: RPMI-8226 leukemia
[4] = tested on: OVCAR-4 ovarian
[5] = tested on: 786-0 renal
[6] = tested on: HL-60(TB) leukemia
[7] = tested on: RXF 393 renal
[8] = tested on: BT-549 breast
[9] = tested on: SF-539 CNS
[10] = tested on: NCI-H522 lung
[11] = tested on: COLO 205 colon
[12] = tested on: SF-268 CNS
[13] = tested on: MOLT-4 leukemia
[14] = tested on: SF-295 CNS
[15] = tested on: HCT-116 colon
[16] = tested on: LOX IMVI melanoma
[17] = tested on: HCT-15 colon
[18] = tested on: SN12C renal
[19] = tested on: MDA-MB-435
[20] = tested on: OVCAR-8 ovarian
[21] = tested on: SK-MEL-2 melanoma
[22] = tested on: SK-MEL-5 melanoma
[23] = tested on: MDA-N
[24] = tested on: HCC-2998 colon
[25] = tested on: MALME-3M melanoma
[26] = tested on: EKVX NSCLC
[27] = tested on: SK-MEL-28 melanoma
[28] = tested on: PC-3 prostate
[29] = tested on: KM12 colon
[30] = tested on: SK-OV-3 ovarian
[31] = tested on: ACHN renal
[32] = tested on: OVCAR-3 ovarian
[33] = tested on: MDA-MB-231 breast
[34] = tested on: NCI/ADR-RES ovarian
[35] = tested on: CAKI-1 renal
[36] = tested on: U251 CNS
[37] = tested on: HT29 colon
[38] = tested on: HOP-62 NSCLC
[39] = tested on: M14 melanoma
[40] = tested on: SNB-19 CNS
[41] = tested on: SR leukemia
[42] = tested on: DU-145 prostate
[43] = tested on: SW-620 colon
[44] = tested on: K-562 leukemia
[45] = tested on: OVCAR-5 ovarian
[46] = tested on: CCRF-CEM leukemia
[47] = tested on: MCF7 breast
[48] = tested on: TK-10 renal
[49] = tested on: A498 renal
[50] = tested on: NCI-H23 lung
[51] = tested on: UACC-62 melanoma
[52] = tested on: UO-31 renal
[53] = tested on: UACC-257 melanoma

Measured: TGI

COC(=O)[C@H](NC(=O)OC(C)(C)C)[C@H]1COC(C)(C)O1
> 100 µM: all assays above

— PubChem BioAssay (NCI)
